# Reference: PubChem BioAssay (NCI)
#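 Dose response: 5 concentrations. Exposure: 48 h. Format: 96-well plates. Endpoint: linear interpolation; highest concentration if not reached. GI50 = concentration required for 50% inhibition of growth. At the TGI there is no net growth.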
# Legend:
# Assay in all cases: NCI anticancer screen, dose series, 48 h
# SK-MEL-2 melanoma = test system: SK-MEL-2 melanoma
# NCI-H226 lung = test system: NCI-H226 lung
# ACHN renal = test system: ACHN renal
# SN12C renal = test system: SN12C renal
# OVCAR-4 ovarian = test system: OVCAR-4 ovarian
# TK-10 renal = test system: TK-10 renal
# SW-620 colon = test system: SW-620 colon
# NCI-H23 lung = test system: NCI-H23 lung
# SF-539 CNS = test system: SF-539 CNS
# T-47D breast = test system: T-47D breast
# COLO 205 colon = test system: COLO 205 colon
# NCI/ADR-RES ovarian = test system: NCI/ADR-RES ovarian
# LOX IMVI melanoma = test system: LOX IMVI melanoma
# MALME-3M melanoma = test system: MALME-3M melanoma
# HCT-116 colon = test system: HCT-116 colon
# RXF 393 renal = test system: RXF 393 renal
# CCRF-CEM leukemia = test system: CCRF-CEM leukemia
# SR leukemia = test system: SR leukemia
# SK-OV-3 ovarian = test system: SK-OV-3 ovarian
# UO-31 renal = test system: UO-31 renal
# EKVX NSCLC = test system: EKVX NSCLC
# OVCAR-3 ovarian = test system: OVCAR-3 ovarian
# SNB-19 CNS = test system: SNB-19 CNS
# IGROV1 ovarian = test system: IGROV1 ovarian
# RPMI-8226 leukemia = test system: RPMI-8226 leukemia
# KM12 colon = test system: KM12 colon
# DU-145 prostate = test system: DU-145 prostate
# 786-0 renal = test system: 786-0 renal
# A549 NSCLC = test system: A549 NSCLC
# HS 578T breast = test system: HS 578T breast
# MDA-MB-435 = test system: MDA-MB-435
# K-562 leukemia = test system: K-562 leukemia
# BT-549 breast = test system: BT-549 breast
# SNB-75 CNS = test system: SNB-75 CNS
# MDA-MB-231 breast = test system: MDA-MB-231 breast
# A498 renal = test system: A498 renal
# SK-MEL-5 melanoma = test system: SK-MEL-5 melanoma
# U251 CNS = test system: U251 CNS
# PC-3 prostate = test system: PC-3 prostate
# SF-295 CNS = test system: SF-295 CNS
# HCC-2998 colon = test system: HCC-2998 colon
# SK-MEL-28 melanoma = test system: SK-MEL-28 melanoma
# HOP-92 NSCLC = test system: HOP-92 NSCLC
# UACC-62 melanoma = test system: UACC-62 melanoma
# NCI-H460 lung = test system: NCI-H460 lung
# CAKI-1 renal = test system: CAKI-1 renal
# UACC-257 melanoma = test system: UACC-257 melanoma
# MCF7 breast = test system: MCF7 breast
# OVCAR-8 ovarian = test system: OVCAR-8 ovarian
# NCI-H522 lung = test system: NCI-H522 lung
# SF-268 CNS = test system: SF-268 CNS
# HOP-62 NSCLC = test system: HOP-62 NSCLC
# HT29 colon = test system: HT29 colon
# MOLT-4 leukemia = test system: MOLT-4 leukemia
# M14 melanoma = test system: M14 melanoma
# OVCAR-5 ovarian = test system: OVCAR-5 ovarian
# HL-60(TB) leukemia = test system: HL-60(TB) leukemia
# HCT-15 colon = test system: HCT-15 colon
smiles,measurement,setting,value
CCC(=O)c1c(C(F)(F)F)n([O-])c2cc(F)c(F)cc2[n+]1=O,GI50,SK-MEL-2 melanoma,663 nM
same,TGI,SK-MEL-2 melanoma,> 20000 nM
same,GI50,NCI-H226 lung,502 nM
same,TGI,NCI-H226 lung,991 nM
same,GI50,ACHN renal,1250 nM
same,TGI,ACHN renal,2660 nM
same,GI50,SN12C renal,649 nM
same,TGI,SN12C renal,2070 nM
same,GI50,OVCAR-4 ovarian,1830 nM
same,TGI,OVCAR-4 ovarian,4100 nM
same,GI50,TK-10 renal,1050 nM
same,TGI,TK-10 renal,2390 nM
same,GI50,SW-620 colon,460 nM
same,TGI,SW-620 colon,2210 nM
same,GI50,NCI-H23 lung,807 nM
same,TGI,NCI-H23 lung,2240 nM
same,GI50,SF-539 CNS,1540 nM
same,TGI,SF-539 CNS,3180 nM
same,GI50,T-47D breast,570 nM
same,TGI,T-47D breast,7040 nM
same,GI50,COLO 205 colon,466 nM
same,TGI,COLO 205 colon,3160 nM
same,GI50,NCI/ADR-RES ovarian,822 nM
same,TGI,NCI/ADR-RES ovarian,2350 nM
same,GI50,LOX IMVI melanoma,28.4 nM
same,TGI,LOX IMVI melanoma,221 nM
same,GI50,MALME-3M melanoma,845 nM
same,TGI,MALME-3M melanoma,2240 nM
same,GI50,HCT-116 colon,366 nM
same,TGI,HCT-116 colon,1510 nM
same,GI50,RXF 393 renal,1370 nM
same,TGI,RXF 393 renal,3250 nM
same,GI50,CCRF-CEM leukemia,108 nM
same,TGI,CCRF-CEM leukemia,555 nM
same,GI50,SR leukemia,60.7 nM
same,TGI,SR leukemia,263 nM
same,GI50,SK-OV-3 ovarian,1860 nM
same,TGI,SK-OV-3 ovarian,3880 nM
same,GI50,UO-31 renal,971 nM
same,TGI,UO-31 renal,3050 nM
same,GI50,EKVX NSCLC,2190 nM
same,TGI,EKVX NSCLC,4910 nM
same,GI50,OVCAR-3 ovarian,296 nM
same,TGI,OVCAR-3 ovarian,836 nM
same,GI50,SNB-19 CNS,1350 nM
same,TGI,SNB-19 CNS,3910 nM
same,GI50,IGROV1 ovarian,520 nM
same,TGI,IGROV1 ovarian,1490 nM
same,GI50,RPMI-8226 leukemia,394 nM
same,TGI,RPMI-8226 leukemia,1600 nM
same,GI50,KM12 colon,1510 nM
same,TGI,KM12 colon,3130 nM
same,GI50,DU-145 prostate,832 nM
same,TGI,DU-145 prostate,2330 nM
same,GI50,786-0 renal,1330 nM
same,TGI,786-0 renal,2710 nM
same,GI50,A549 NSCLC,2430 nM
same,TGI,A549 NSCLC,6720 nM
same,GI50,HS 578T breast,1790 nM
same,TGI,HS 578T breast,5820 nM
same,GI50,MDA-MB-435,159 nM
same,TGI,MDA-MB-435,605 nM
same,GI50,K-562 leukemia,154 nM
same,TGI,K-562 leukemia,> 100000 nM
same,GI50,BT-549 breast,1520 nM
same,TGI,BT-549 breast,3050 nM
same,GI50,SNB-75 CNS,2580 nM
same,TGI,SNB-75 CNS,4440 nM
same,GI50,MDA-MB-231 breast,594 nM
same,TGI,MDA-MB-231 breast,1490 nM
same,GI50,A498 renal,1740 nM
same,TGI,A498 renal,4920 nM
same,GI50,SK-MEL-5 melanoma,1270 nM
same,TGI,SK-MEL-5 melanoma,2740 nM
same,GI50,U251 CNS,1430 nM
same,TGI,U251 CNS,3390 nM
same,GI50,PC-3 prostate,1540 nM
same,TGI,PC-3 prostate,3060 nM
same,GI50,SF-295 CNS,370 nM
same,TGI,SF-295 CNS,1670 nM
same,GI50,HCC-2998 colon,1450 nM
same,TGI,HCC-2998 colon,2900 nM
same,GI50,SK-MEL-28 melanoma,1320 nM
same,TGI,SK-MEL-28 melanoma,2990 nM
same,GI50,HOP-92 NSCLC,762 nM
same,TGI,HOP-92 NSCLC,2190 nM
same,GI50,UACC-62 melanoma,571 nM
same,TGI,UACC-62 melanoma,1330 nM
same,GI50,NCI-H460 lung,1760 nM
same,TGI,NCI-H460 lung,4890 nM
same,GI50,CAKI-1 renal,329 nM
same,TGI,CAKI-1 renal,1030 nM
same,GI50,UACC-257 melanoma,1500 nM
same,TGI,UACC-257 melanoma,2980 nM
same,GI50,MCF7 breast,623 nM
same,GI50,OVCAR-8 ovarian,632 nM
same,TGI,OVCAR-8 ovarian,1590 nM
same,GI50,NCI-H522 lung,615 nM
same,TGI,NCI-H522 lung,2690 nM
same,GI50,SF-268 CNS,1400 nM
same,TGI,SF-268 CNS,3210 nM
same,GI50,HOP-62 NSCLC,1440 nM
same,TGI,HOP-62 NSCLC,2810 nM
same,GI50,HT29 colon,228 nM
same,TGI,HT29 colon,492 nM
same,GI50,MOLT-4 leukemia,196 nM
same,TGI,MOLT-4 leukemia,> 100000 nM
same,GI50,M14 melanoma,308 nM
same,TGI,M14 melanoma,951 nM
same,GI50,OVCAR-5 ovarian,1320 nM
same,TGI,OVCAR-5 ovarian,2750 nM
same,GI50,HL-60(TB) leukemia,638 nM
same,TGI,HL-60(TB) leukemia,6550 nM
same,GI50,HCT-15 colon,1910 nM
same,TGI,HCT-15 colon,> 100000 nM
